# Experimental data: patent US7649002B2, “(3,5-dimethylpiperidin-1yl)(4-phenylpyrrolidin-3-yl)methanone derivatives as MCR4 agonists” (Pfizer Inc, priority 2004, dated 2010)
# Counter-ions that a name gives are not always drawn.
# Target: T1, human MCR4 receptor (Homo sapiens, UniProt P32245)
# T1 construct: expressed in transfected cells
# Assay: MCR4 improved functional assay (Protocol E): CHO-K1-MC4R-CRE-β-lactamase reporter
# Format: cell-based
# Details: Protocols C or E, read-out: functional potency at the MC4 receptor (EC50)
# Description: (ii) MCR5 Standard Functional Assay Methodology and MCR4 Improved Functional Assay Methodology [Assay Protocol D and E Respectively] […] These cell lines were engineered using protocols akin to those outlined by Zaccolo et al (Zaccolo, M., (2000) Nature, 2(1); 25-29). Compound-induced activation of the MCR5 or MCR4 receptors in these two cell lines stimulated the production, and intracellular accumulation, of the enzyme β-lactamase. The quantity of β-lactamase enzyme produced was directly proportional to the degree to which the test compound activated the MCR5 or MCR4 receptors present on these cells and was quantified using the P-lactamase gene reporter analysis kit that is commercially available from Invitrogen Life Technologies. An in-depth description of this technology and assay protocols are available from the Invitrogen web site (www.invitrogen.com). The protocol listed below provides a summary of that assay methodology. The quantity of β-lactamase enzyme produced by compound-induced activation of the MCR5 or MCR4 receptors expressed in these cell lines was quantified using a LjI Biosystems Analyst™ HT 96.384 plate reader set to excite at a wave length of 405 nm, and measure the energy emitted at wave lengths of 450 nm and 530 nm. Cellular responses were quantified by dividing the measured energy emitted at a wavelength of 450 nm by the measured energy emitted at a wavelength of 530 nm. […] CCF4-AM was dissolved in 100% DMSO to give a final solution concentration of 1 mM. This solution was termed Solution A. Probenecid was dissolved in 200 mM NaOH to give a final solution concentration of 200 mM. This solution was termed Solution D. Composition of the β-lactamase assay dye solution: for 1072 μL of assay dye solution combine: 12 μL of Solution A, 60 μL of Solution B, 925 μL of Solution C and 75 μL of Solution D. […] Cells were grown in T225 vent cap flasks containing 50 ml of growth medium and maintained in a cell incubator at a temperature of 37° C. and in an environment containing 5% CO2. The composition of the growth medium for the CHO-K1-MC5R-CRE-β-lactamase was 90% v/v DMEM supplemented with; Glutamax-1, 25 mM HEPES, 10% v/v foetal calf serum (FCS), 1 mM sodium pyruvate, 0.1 mM non essential amino acids and 800 μg/ml genetic in. For the CHO-K1-MC4R-CRE-β-lactamase this growth media was further supplemented with […] Zeocin. Cells were harvested when they reached 80-90% confluency by first removing the existing growth medium and then washing with PBS that had been pre-warmed to a temperature of 37° C. This PBS was then removed and 5 ml of cell dissociation fluid added to the flask. These cells were incubated for 5 minutes in a cell incubator set at a temperature of 37° C. and in an environment containing 5% CO2 to detach the cells. When cells were detached, pre-warmed growth media was added, the cells re-suspended and mixed gently to achieve a single cell suspension by pipetting. This cell suspension was then used for experimentation, or transferred into a new T225 flask to perpetuate the cell culture. […] For each assay the cell plates were then retuned to a cell incubator maintained at a temperature of 37° C. and in an environment containing 5% CO2 overnight before performing the assay on the second assay day. […] For the MCR4 improved functional assay methodology the solution of cyclohexamide was not added. Subsequently, 10 μL of the test compound solution was transferred to the assay plate. The assay plate was then transferred to a cell incubator, set at 37° C. and in an environment containing 5% CO2, and left for 4 hours for the MCR4 improved assay methodology, or 5 hours for the MCR5 standard assay methodology. After this incubation period the plate was removed from the incubator, 10 μL of the […] assay dye solution was added to each well and then the plate returned to the cell incubator.
# T1 sequence (P32245 whole entry): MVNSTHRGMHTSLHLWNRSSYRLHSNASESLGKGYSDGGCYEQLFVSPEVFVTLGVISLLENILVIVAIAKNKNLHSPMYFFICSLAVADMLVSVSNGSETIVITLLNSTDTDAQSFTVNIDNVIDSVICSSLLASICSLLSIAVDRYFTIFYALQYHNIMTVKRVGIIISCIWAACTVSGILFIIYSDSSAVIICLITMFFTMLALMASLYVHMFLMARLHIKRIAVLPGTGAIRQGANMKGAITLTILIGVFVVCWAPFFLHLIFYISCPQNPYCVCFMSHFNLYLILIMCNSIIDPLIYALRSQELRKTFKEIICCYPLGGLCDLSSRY
row,SMILES,EC50 [nM]
1,"C[C@@H]1CN(C(=O)[C@@H]2CNC[C@H]2c2ccc(F)cc2F)C[C@H](C)[C@@]1(O)c1ccc(F)cc1F [Example 16, (3R,4R,5S)-4-(2,4-difluorophenyl)-1-{[(3S,4R)-4-(2,4-difluorophenyl)pyrrolidin-3-yl]carbonyl}-3,5-dimethylpiperidin-4-ol hydrochloride]",< 150
2,"C[C@@H]1CN(C(=O)[C@@H]2CN(c3cnccn3)C[C@H]2c2ccc(F)cc2F)C[C@H](C)[C@@]1(O)c1ccccc1 [Example 33, (3R,4R,5S)-1-{[(3S,4R)-4-(2,4-Difluorophenyl)-1-pyrazin-2-ylpyrrolidin-3-yl]carbonyl}-3,5-dimethyl-4-phenylpiperidin-4-ol hydrochloride]",< 150
3,"CC(C)N1C[C@@H](C(=O)N2C[C@@H](C)[C@](O)(c3ccc(F)cc3)[C@@H](C)C2)[C@H](c2ccc(F)cc2F)C1 [Example 10, (3R,4R,5S)-1-{[(3S,4R)-4-(2,4-difluorophenyl)-1-isopropylpyrrolidin-3-yl]carbonyl}-4-(4-fluorophenyl)-3,5-dimethylpiperidin-4-ol hydrochloride]",< 150
4,"C[C@@H]1CN(C(=O)[C@@H]2CN(c3cncnc3)C[C@H]2c2ccc(F)cc2F)C[C@H](C)[C@@]1(O)c1ccccc1 [Example 36, (3R,4R,5S)-1-{[(3S,4R)-4-(2,4-Difluorophenyl)-1-pyrimidin-5-ylpyrrolidin-3-yl]carbonyl}-3,5-dimethyl-4-phenylpiperidin-4-ol hydrochloride]",< 150
5,"C[C@@H]1CN(C(=O)[C@@H]2CNC[C@H]2c2ccc(Cl)cc2)C[C@H](C)[C@@]1(O)c1ccccc1 [Example 48, (3R,4R,5S)-1-{[(3S,4R)-4-(4-Chlorophenyl)pyrrolidin-3-yl]carbonyl}-3,5-dimethyl-4-phenylpiperidin-4-ol hydrochloride]",< 150
6,"CCC[C@@]1(O)[C@H](C)CN(C(=O)[C@@H]2CN(C(C)(C)C)C[C@H]2c2ccc(F)cc2F)C[C@@H]1C [Example 40, (3R,4R,5S)-1-{[(3S,4R)-1-tert-Butyl-4-(24-difluorophenyl)pyrrolidin-3-yl]carbonyl}-3,5-dimethyl-4-propylpiperidin-4-ol hydrochloride]",< 150

# More lines, now with the values ahead:
row,EC50 [nM],SMILES
1,< 50,"CC(C)N1C[C@@H](C(=O)N2C[C@@H](C)[C@](O)(c3ccc(F)c(F)c3)[C@@H](C)C2)[C@H](c2ccc(F)cc2F)C1 [Example 51, (3R,4R,5S)-4-(3,4-difluorophenyl)-1-{[(3S,4R)-4-(2,4-difluorophenyl)-1-isopropylpyrrolidin-3-yl]carbonyl}-3,5-dimethylpiperidin-4-ol hydrochloride]"
2,< 10,"C[C@@H]1CN(C(=O)[C@@H]2CN(C(C)(C)C)C[C@H]2c2ccc(F)cc2F)C[C@H](C)[C@@]1(O)c1ccc(F)cc1 [Example 9, (3R,4R,5S)-1-{[(3S,4R)-1-tert-butyl-4-(2,4-difluorophenyl)pyrrolidin-3-yl]carbonyl}-4-(4-fluorophenyl)-3,5-dimethylpiperidin-4-ol hydrochloride]"
3,< 50,"CC(C)N1C[C@@H](C(=O)N2C[C@@H](C)[C@](O)(c3ccc(F)cc3F)[C@@H](C)C2)[C@H](c2ccc(F)cc2F)C1 [Example 52, (3R,4R,5S)-4-(2,4-difluorophenyl)-1-{[(3S,4R)-4-(2,4-difluorophenyl)-1-isopropylpyrrolidin-3-yl]carbonyl}-3,5-dimethylpiperidin-4-ol hydrochloride]"
4,< 150,"CC(C)N1C[C@@H](C(=O)N2C[C@@H](C)[C@](O)(c3ccc(Cl)cc3)[C@@H](C)C2)[C@H](c2ccc(F)cc2F)C1 [Example 50, (3R,4R,5S)-4-(4-chlorophenyl)-1-{[(3S,4R)-4-(2,4-difluorophenyl)-1-isopropylpyrrolidin-3-yl]carbonyl}-3,5-dimethylpiperidin-4-ol hydrochloride]"
5,< 50,"C[C@@H]1CN(C(=O)[C@@H]2CN(C(C)(C)C)C[C@H]2c2ccc(F)cc2F)C[C@H](C)[C@@]1(O)c1c(F)cccc1F [Example 17, (3R,4R,5S)-1-[{(3S,4R)-1-tert-butyl-4-(2,4-difluorophenyl)pyrrolidin-3-yl]carbonyl}-4-(2,6-difluorophenyl)-3,5-dimethylpiperidin-4-ol hydrochloride]"
6,< 150,"CCN1C[C@@H](C(=O)N2C[C@@H](C)[C@](O)(c3ccc(OC)cc3)[C@@H](C)C2)[C@H](c2ccc(F)cc2F)C1 [Example 14, (3R,4R,5S)-1-{[(3S,4R)-4-(2,4-difluorophenyl)-1-ethylpyrrolidin-3-yl]carbonyl}-4-(4-methoxyphenyl)-3,5-dimethylpiperidin-4-ol hydrochloride]"
7,< 150,"C[C@@H]1CN(C(=O)[C@@H]2CNC[C@H]2c2ccc(F)cc2F)C[C@H](C)[C@@]1(O)c1cccc(F)c1 [Example 20, (3R,4R,5S)-1-{[(3S,4R)-4-(2,4-difluorophenyl)pyrrolidin-3-yl]carbonyl}-4-(3-fluorophenyl)-3,5-dimethylpiperidin-4-ol hydrochloride]"
8,< 10,"C[C@@H]1CN(C(=O)[C@@H]2CN(C(C)(C)C)C[C@H]2c2ccc(F)cc2F)C[C@H](C)[C@@]1(O)c1ccc(F)c(F)c1 [Example 8, (3R,4R,5S)-1-{[(3S,4R)-1-tert-Butyl-4-(2,4-difluorophenyl)pyrrolidin-3-yl]carbonyl}-4-(3,4-difluorophenyl)-3,5-dimethylpiperidin-4-ol hydrochloride]"
9,< 10,"C[C@@H]1CN(C(=O)[C@@H]2CN(c3ccncn3)C[C@H]2c2ccc(F)cc2F)C[C@H](C)[C@@]1(O)c1ccccc1 [Example 42, (3R,4R,5S)-1-{[(3S,4R)-4-(2,4-difluorophenyl)-1-pyrimidin-4-ylpyrrolidin-3-yl]carbonyl}-3,5-dimethyl-4-phenylpiperidin-4-ol hydrochloride]"
10,< 10,"C[C@@H]1CN(C(=O)[C@@H]2CN(c3cccnn3)C[C@H]2c2ccc(F)cc2F)C[C@H](C)[C@@]1(O)c1ccccn1 [Example 47, (3R,4R,5S)-1-{[(3S,4R)-4-(2,4-Difluorophenyl)-1-pyridazin-3-ylpyrrolidin-3-yl]carbonyl}-3,5-dimethyl-4-pyridin-2-ylpiperidin-4-ol hydrochloride]"
11,< 50,"C[C@@H]1CN(C(=O)[C@@H]2CN(c3ccncn3)C[C@H]2c2ccc(F)cc2F)C[C@H](C)[C@@]1(O)c1ccccn1 [Example 44, (3R,4R,5S)-1-{[(3S,4R)-4-(2,4-difluorophenyl)-1-pyrimidin-4-ylpyrrolidin-3-yl]carbonyl}-3,5-dimethyl-4-pyridin-2-ylpiperidin-4-ol hydrochloride]"
12,< 10,"C[C@@H]1CN(C(=O)[C@@H]2CN(c3cccnc3)C[C@H]2c2ccc(F)cc2F)C[C@H](C)[C@@]1(O)c1ccccc1 [Example 34, (3R,4R,5S)-1-{[(3S,4R)-4-(2,4-Difluorophenyl)-1-pyridin-3-ylpyrrolidin-3-yl]carbonyl}-3,5-dimethyl-4-phenylpiperidin-4-ol hydrochloride]"

# Same assay, conditions: Table 6, read-out: MCR4 EC50
row,EC50 [nM],SMILES
1,54,"C[C@@H]1CN(C(=O)[C@@H]2CNC[C@H]2c2ccc(F)cc2F)C[C@H](C)[C@@]1(O)c1ccc(F)cc1F [Example 16, (3R,4R,5S)-4-(2,4-difluorophenyl)-1-{[(3S,4R)-4-(2,4-difluorophenyl)pyrrolidin-3-yl]carbonyl}-3,5-dimethylpiperidin-4-ol hydrochloride]"
2,4,"C[C@@H]1CN(C(=O)[C@@H]2CN(c3cccnc3)C[C@H]2c2ccc(F)cc2F)C[C@H](C)[C@@]1(O)c1ccccc1 [Example 34, (3R,4R,5S)-1-{[(3S,4R)-4-(2,4-Difluorophenyl)-1-pyridin-3-ylpyrrolidin-3-yl]carbonyl}-3,5-dimethyl-4-phenylpiperidin-4-ol hydrochloride]"

# Same assay, conditions: functional potency at the MC4 receptor (EC50), Protocols C or E
row,SMILES,EC50 [nM]
1,"CCN1C[C@@H](C(=O)N2C[C@@H](C)[C@](O)(c3cccc(F)c3)[C@@H](C)C2)[C@H](c2ccc(F)cc2F)C1 [Example 53, (3R,4R,5S)-1-{[(3S,4R)-4-(2,4-difluorophenyl)-1-ethylpyrrolidin-3-yl]carbonyl}-4-(3-fluorophenyl)-3,5-dimethylpiperidin-4-ol hydrochloride]",< 50
2,"C[C@@H]1CN(C(=O)[C@@H]2CN(C(C)(C)C)C[C@H]2c2ccc(F)cc2F)C[C@H](C)[C@@]1(O)c1cccc(F)c1 [Example 19, (3R,4R,5S)-1-{[(3S,4R)-1-tert-butyl-4-(2,4-difluorophenyl)pyrrolidin-3-yl]carbonyl}-4-(3-fluorophenyl)-3,5-dimethylpiperidin-4-ol hydrochloride]",< 10
